In patent US9776995B2, “Bicyclic sulfonamide compounds as sodium channel inhibitors” (AMGEN INC., priority 2013, dated 2017):

What follows are molecules tested against Nav 1.7 (Homo sapiens (Human), UniProt Q15858) (assay: in-vitro Nav 1.7 PX data). Details: not given.
Assay type: cell-based

Chain of Nav 1.7 (Q15858 whole entry): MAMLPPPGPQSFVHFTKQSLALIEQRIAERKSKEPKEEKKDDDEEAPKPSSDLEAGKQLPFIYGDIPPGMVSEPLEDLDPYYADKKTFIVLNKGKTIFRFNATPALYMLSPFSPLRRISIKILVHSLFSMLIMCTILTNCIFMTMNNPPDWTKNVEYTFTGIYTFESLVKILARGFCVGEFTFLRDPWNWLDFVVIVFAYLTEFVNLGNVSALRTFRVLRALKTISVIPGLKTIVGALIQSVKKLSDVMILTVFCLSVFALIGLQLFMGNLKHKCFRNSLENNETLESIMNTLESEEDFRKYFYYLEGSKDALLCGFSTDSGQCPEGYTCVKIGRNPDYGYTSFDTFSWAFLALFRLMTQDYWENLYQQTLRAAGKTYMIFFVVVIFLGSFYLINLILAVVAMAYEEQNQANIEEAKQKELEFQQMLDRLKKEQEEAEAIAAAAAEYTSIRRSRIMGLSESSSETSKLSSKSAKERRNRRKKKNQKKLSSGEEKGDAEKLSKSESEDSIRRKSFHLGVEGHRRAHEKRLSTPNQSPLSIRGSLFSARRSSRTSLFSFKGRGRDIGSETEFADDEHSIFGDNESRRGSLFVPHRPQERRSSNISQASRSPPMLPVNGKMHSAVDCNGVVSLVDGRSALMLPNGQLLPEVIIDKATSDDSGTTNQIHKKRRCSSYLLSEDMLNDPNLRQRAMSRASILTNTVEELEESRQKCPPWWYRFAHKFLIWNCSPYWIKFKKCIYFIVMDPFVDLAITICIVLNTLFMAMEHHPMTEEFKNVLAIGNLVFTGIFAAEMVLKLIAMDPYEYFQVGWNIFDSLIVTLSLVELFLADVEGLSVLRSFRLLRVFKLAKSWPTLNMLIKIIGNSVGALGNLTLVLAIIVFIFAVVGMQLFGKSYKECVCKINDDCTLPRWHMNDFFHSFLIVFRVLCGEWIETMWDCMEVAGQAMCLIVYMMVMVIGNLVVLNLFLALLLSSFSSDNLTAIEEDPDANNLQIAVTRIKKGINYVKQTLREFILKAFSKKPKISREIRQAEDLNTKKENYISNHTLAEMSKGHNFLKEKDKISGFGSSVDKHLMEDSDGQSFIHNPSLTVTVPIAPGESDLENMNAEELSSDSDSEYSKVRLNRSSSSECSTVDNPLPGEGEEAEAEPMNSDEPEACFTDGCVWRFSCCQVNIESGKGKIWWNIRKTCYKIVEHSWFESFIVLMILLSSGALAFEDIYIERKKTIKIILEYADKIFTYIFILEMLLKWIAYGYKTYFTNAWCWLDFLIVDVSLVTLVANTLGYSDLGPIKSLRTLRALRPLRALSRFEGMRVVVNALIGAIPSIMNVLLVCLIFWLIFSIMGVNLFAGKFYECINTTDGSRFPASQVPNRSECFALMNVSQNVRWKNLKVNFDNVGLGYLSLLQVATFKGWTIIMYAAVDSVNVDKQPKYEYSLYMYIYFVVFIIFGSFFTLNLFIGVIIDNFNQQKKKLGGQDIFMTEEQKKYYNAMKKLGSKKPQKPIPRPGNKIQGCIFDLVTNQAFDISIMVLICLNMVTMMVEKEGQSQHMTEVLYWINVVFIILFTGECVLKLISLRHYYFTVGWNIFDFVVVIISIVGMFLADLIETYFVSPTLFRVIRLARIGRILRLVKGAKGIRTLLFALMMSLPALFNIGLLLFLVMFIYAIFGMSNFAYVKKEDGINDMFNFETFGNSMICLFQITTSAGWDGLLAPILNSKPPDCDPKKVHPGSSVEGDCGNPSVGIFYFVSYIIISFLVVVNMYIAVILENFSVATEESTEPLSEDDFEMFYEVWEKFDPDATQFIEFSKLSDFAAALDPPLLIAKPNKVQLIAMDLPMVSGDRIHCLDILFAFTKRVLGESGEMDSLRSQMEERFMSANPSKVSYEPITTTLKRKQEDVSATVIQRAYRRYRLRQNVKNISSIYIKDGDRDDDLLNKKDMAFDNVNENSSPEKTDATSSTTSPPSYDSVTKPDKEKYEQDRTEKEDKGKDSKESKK

SMILES	IC50
COc1cc(-c2cccc(C(F)(F)F)c2)c(F)cc1-c1nncc2cc(S(=O)(=O)Nc3ccon3)ccc12 [Example 3, 1-(2-FLUORO-5-METHOXY-3′-(TRIFLUOROMETHYL)-[1,1′-BIPHENYL]-4-YL)-N-(ISOXAZOL-3-YL)PHTHALAZINE-6-SULFONAMIDE]	0.0305 µM
COc1nnc(NS(=O)(=O)c2ccc3c(-c4ccc(-c5cc(F)cc(F)c5)cc4OC)nccc3c2)s1 [Example 8, 1-(3′,5′-DIFLUORO-3-METHOXY-[1,1′-BIPHENYL]-4-YL)-N-(5-METHOXY-1,3,4-THIADIAZOL-2-YL)ISOQUINOLINE-6-SULFONAMIDE]	3.29 µM
COc1cc(C(F)(F)F)ccc1-c1ncnc2cc(S(=O)(=O)Nc3ccon3)ccc12 [Example 38, N-(ISOXAZOL-3-YL)-4-(2-METHOXY-4-(TRIFLUOROMETHYL)PHENYL)QUINAZOLINE-7-SULFONAMIDE]	2.57 µM

Same assay, conditions: PatchXpress (PX), in vitro

SMILES	IC50
COc1cc(-c2ccc(Cl)c(C)c2)c(F)cc1-c1nccc2cc(S(=O)(=O)Nc3cccnn3)ccc12 [Example 87, 1-(4′-chloro-2-fluoro-5-methoxy-3′-methyl-4-biphenylyl)-N-3-pyridazinyl-6-isoquinolinesulfonamide]	0.178 µM
COc1nc(Oc2ccc(F)cc2)ccc1-c1nccc2cc(S(=O)(=O)Nc3ccncn3)ccc12 [Example 45, 1-(6-(4-FLUOROPHENOXY)-2-METHOXYPYRIDIN-3-YL)-N-(PYRIMIDIN-4-YL)ISOQUINOLINE-6-SULFONAMIDE]	1.51 µM
COc1ccc(-c2nccc3cc(S(=O)(=O)Nc4ccncn4)ccc23)c(NCC(C)(C)C)n1 [Example 70, 1-(2-((2,2-dimethylpropyl)amino)-6-methoxy-3-pyridinyl)-N-4-pyrimidinyl-6-isoquinolinesulfonamide]	2.51 µM
COc1nc(OCC(C)(C)C)ccc1-c1nccc2cc(S(=O)(=O)Nc3ccncn3)ccc12 [Example 67, 1-(6-(2,2-dimethylpropoxy)-2-methoxy-3-pyridinyl)-N-4-pyrimidinyl-6-isoquinolinesulfonamide]	1.01 µM
COc1nc(NCC(C)(C)C)ccc1-c1nccc2cc(S(=O)(=O)Nc3ccncn3)ccc12 [Example 47, 1-(2-METHOXY-6-(NEOPENTYLAMINO)PYRIDIN-3-YL)-N-(PYRIMIDIN-4-YL)ISOQUINOLINE-6-SULFONAMIDE]	0.899 µM
COc1nc(N2CCCC2)ccc1-c1nccc2cc(S(=O)(=O)Nc3ccncn3)ccc12 [Example 72, 1-(2-methoxy-6-(1-pyrrolidinyl)-3-pyridinyl)-N-4-pyrimidinyl-6-isoquinolinesulfonamide]	7.71 µM
COc1nc(NC2CCC(F)(F)CC2)ccc1-c1nccc2cc(S(=O)(=O)Nc3ccncn3)ccc12 [Example 74, 1-(6-((4,4-difluorocyclohexyl)amino)-2-methoxy-3-pyridinyl)-N-4-pyrimidinyl-6-isoquinolinesulfonamide]	0.811 µM
COc1cc(-c2ccc(F)c(C)c2)c(Cl)cc1-c1nccc2cc(S(=O)(=O)Nc3ccon3)ccc12 [Example 94, 1-(2-chloro-4′-fluoro-5-methoxy-3′-methyl-4-biphenylyl)-N-3-isoxazolyl-6-isoquinolinesulfonamide]	0.0506 µM

Same assay, conditions: in-vitro Nav 1.7 PX data

SMILES	IC50
O=S(=O)(Nc1nncs1)c1ccc2c(-c3ccc(-c4cccc(F)c4)cc3CO)nccc2c1 [Example 11, 1-(3′-FLUORO-3-(HYDROXYMETHYL)-[1,1′-BIPHENYL]-4-YL)-N-(1,3,4-THIADIAZOL-2-YL)ISOQUINOLINE-6-SULFONAMIDE]	1.6 µM
COc1cc(-c2cccc(C(F)(F)F)c2)c(C#N)cc1-c1nccc2cc(S(=O)(=O)Nc3ccon3)ccc12 [Example 148, 1-(2-cyano-5-methoxy-3′-(trifluoromethyl)-4-biphenylyl)-N-3-isoxazolyl-6-isoquinolinesulfonamide]	0.0286 µM
COc1ccc(F)cc1-c1cc(C)c(-c2ncnc3cc(S(=O)(=O)Nc4ccon4)ccc23)cc1OC [Example 168, 4-(5′-fluoro-2,2′-dimethoxy-5-methyl-4-biphenylyl)-N-3-isoxazolyl-7-quinazolinesulfonamide]	8.54 µM
COc1cc(-c2nccc3cc(S(=O)(=O)Nc4ccon4)ccc23)c(C)cc1-c1cccc(F)c1 [Example 167, 1-(3′-fluoro-2-methoxy-5-methyl-4-biphenylyl)-N-3-isoxazolyl-6-isoquinolinesulfonamide]	2.72 µM
COc1cc(-c2cc(F)cc(F)c2)ccc1-c1nccc2cc(S(=O)(=O)Nc3ccccn3)ccc12 [Example 141, 1-(3′,5′-difluoro-3-methoxy-4-biphenylyl)-N-2-pyridinyl-6-isoquinolinesulfonamide]	1.01 µM
COc1cc(C#N)c(-c2cc(F)cc(F)c2)cc1-c1nccc2cc(S(=O)(=O)Nc3nncs3)ccc12 [Example 150, 1-(6-cyano-3′,5′-difluoro-4-methoxy-3-biphenylyl)-N-1,3,4-thiadiazol-2-yl-6-isoquinolinesulfonamide]	6 µM
COc1cc(-c2cccnc2OC)ccc1-c1nccc2cc(S(=O)(=O)Nc3nncs3)ccc12 [Example 166, 1-(2-methoxy-4-(2-methoxy-3-pyridinyl)phenyl)-N-1,3,4-thiadiazol-2-yl-6-isoquinolinesulfonamide]	0.794 µM
COc1cc(-c2cc(F)cc(F)c2)ccc1-c1nccc2cc(S(=O)(=O)Nc3cnccn3)ccc12 [Example 140, 1-(3′,5′-difluoro-3-methoxy-4-biphenylyl)-N-2-pyrazinyl-6-isoquinolinesulfonamide]	0.652 µM

Same assay, conditions: in-vitro PX

SMILES	IC50
COc1cc(-c2cccc(F)c2)ccc1C1c2ccc(S(=O)(=O)Nc3nncs3)cc2CCN1C(C)=O (centres unmarked) [Example 52, 2-ACETYL-1-(3′-FLUORO-3-METHOXY-[1,1′-BIPHENYL]-4-YL)-N-(1,3,4-THIADIAZOL-2-YL)-1,2,3,4-TETRAHYDROISOQUINOLINE-6-SULFONAMIDE]	1.69 µM
COc1cc(-c2ccc(F)c(C)c2)c(Cl)cc1-c1ncnc2cc(S(=O)(=O)Nc3ccon3)ccc12 [Example 213, 4-(2-chloro-4′-fluoro-5-methoxy-3′-methyl-4-biphenylyl)-N-3-isoxazolyl-7-quinazolinesulfonamide]	0.0382 µM
COc1nc(N(C)C)c(Cl)cc1-c1nccc2cc(S(=O)(=O)Nc3nncs3)ccc12 [Example 242, 1-(5-chloro-6-(dimethylamino)-2-methoxy-3-pyridinyl)-N-1,3,4-thiadiazol-2-yl-6-isoquinolinesulfonamide]	1.87 µM

Same assay, conditions: in-vitro PX (PatchXpress) data

SMILES	IC50
COc1cc(-c2cccc(F)c2)ccc1-c1n[nH]c(=O)c2cc(S(=O)(=O)Nc3nncs3)ccc12 [Example 18, 1-(3′-FLUORO-3-METHOXY-[1,1′-BIPHENYL]-4-YL)-4-OXO-N-(1,3,4-THIADIAZOL-2-YL)-3,4-DIHYDROPHTHALAZINE-6-SULFONAMIDE]	1.42 µM
COc1cc(Oc2cc(C)cc(F)c2)ccc1-c1nccc2cc(S(=O)(=O)Nc3nncs3)ccc12 [Example 32, 1-(4-(3-FLUORO-5-METHYLPHENOXY)-2-METHOXYPHENYL)-N-(1,3,4-THIADIAZOL-2-YL)ISOQUINOLINE-6-SULFONAMIDE]	0.129 µM
O=S(=O)(Nc1ccncn1)c1ccc2c(-c3ccc(C(F)(F)F)cc3C3CC3)ncnc2c1 [Example 36, 4-(2-CYCLOPROPYL-4-(TRIFLUOROMETHYL)-PHENYL)-N-(PYRIMIDIN-4-YL)QUINAZOLINE-7-SULFONAMIDE]	0.744 µM
COc1cc(-c2cc(F)cc(F)c2)ccc1-c1ccnc2cc(S(=O)(=O)Nc3nncs3)ccc12 [Example 13, 4-(3′,5′-DIFLUORO-3-METHOXY-[1,1′-BIPHENYL]-4-YL)-N-(1,3,4-THIADIAZOL-2-YL)QUINOLINE-7-SULFONAMIDE]	0.453 µM
COc1cc(-c2cccc(F)c2)c(Cl)cc1-c1ncnc2cc(S(=O)(=O)Nc3cccnn3)ccc12 [Example 15, 4-(2-CHLORO-3′-FLUORO-5-METHOXY-[1,1′-BIPHENYL]-4-YL)-N-(PYRIDAZIN-3-YL)QUINAZOLINE-7-SULFONAMIDE]	0.11 µM

Same assay, conditions: in-vitro PX data

SMILES	IC50
COc1cc(-c2ccc(Cl)c(C)c2)c(Cl)cc1-c1nccc2cc(S(=O)(=O)Nc3ccon3)ccc12 [Example 119, 1-(2,4′-dichloro-5-methoxy-3′-methyl-4-biphenylyl)-N-3-isoxazolyl-6-isoquinolinesulfonamide]	0.0736 µM
Cn1nccc1-c1cc(-c2cc(F)cc(F)c2)ccc1-c1nccc2cc(S(=O)(=O)Nc3ccon3)ccc12 [Example 4, 1-(3′,5′-DIFLUORO-3-(1-METHYL-1H-PYRAZOL-5-YL)-[1,1′-BIPHENYL]-4-YL)-N-(ISOXAZOL-3-YL)ISOQUINOLINE-6-SULFONAMIDE 2,2,2-TRIFLUOROACETATE]	0.148 µM
COc1cc(-c2cccc(Cl)c2)c(F)cc1-c1ncnc2cc(S(=O)(=O)Nc3ccon3)ccc12 [Example 104, 4-(3′-chloro-2-fluoro-5-methoxy-4-biphenylyl)-N-3-isoxazolyl-7-quinazolinesulfonamide]	0.0084 µM
COc1cc(-c2cc(F)cc(F)c2)ccc1-c1nccc2cc(S(=O)(=O)Nc3cncc(C)n3)ccc12 [Example 131, 1-(3′,5′-difluoro-3-methoxy-4-biphenylyl)-N-(6-methyl-2-pyrazinyl)-6-isoquinolinesulfonamide]	1.63 µM
COc1cc(-c2ccc(Cl)c(F)c2)c(Cl)cc1-c1nccc2cc(S(=O)(=O)Nc3ccon3)ccc12 [Example 101, 1-(2,4′-dichloro-3′-fluoro-5-methoxy-4-biphenylyl)-N-3-isoxazolyl-6-isoquinolinesulfonamide]	0.0739 µM
COc1cc(-c2cc(F)cc(F)c2)ccc1-c1nccc2cc(S(=O)(=O)Nc3ncc(C#N)s3)ccc12 [Example 132, N-(5-cyano-1,3-thiazol-2-yl)-1-(3′,5′-difluoro-3-methoxy-4-biphenylyl)-6-isoquinolinesulfonamide]	0.695 µM
COc1cc(-c2cc(F)cc(F)c2)ccc1-c1nccc2cc(S(=O)(=O)Nc3nnc(C)s3)ccc12 [Example 133, 1-(3′,5′-difluoro-3-methoxy-4-biphenylyl)-N-(5-methyl-1,3,4-thiadiazol-2-yl)-6-isoquinolinesulfonamide]	1.56 µM
COc1cc(-c2cccc(F)c2)c(C#N)cc1-c1nccc2cc(S(=O)(=O)Nc3ncccn3)ccc12 [Example 109, 1-(2-cyano-3′-fluoro-5-methoxy-4-biphenylyl)-N-2-pyrimidinyl-6-isoquinolinesulfonamide]	0.241 µM
